The supplement of paper PMC10307832

Key:
Assay in all cases: relative viability (nuclei count vs DMSO), 5 days (fraction); higher = more cells survive
[1] = compound: C1CN(CCC1C(C2=CC3=C(C=C2)OCO3)(C4=CC5=C(C=C4)OCO5)O)C(=O)OC6=CC=C(C=C6)[N+](=O)[O-] [JZL-184] + CS(=O)(=O)N1CCN(Cc2cc3nc(-c4cccc5[nH]ncc45)nc(N4CCOCC4)c3s2)CC1 [Pictilisib] (partner 1 µM)
Method in brief: (§1)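 Relative viability is defined as nuclei in treated wells over nuclei in vehicle wells. Duplicate plates were run and medians reported. Lung cancer cell lines in 1536-well plates were dosed by pin tool one day after seeding, with one drug or with a fixed anchor-drug dose plus five library-drug doses (not always all listed) in √10 steps, and nuclei were counted after 5 days.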

[2] = compound: C1CN(CCC1C(C2=CC3=C(C=C2)OCO3)(C4=CC5=C(C=C4)OCO5)O)C(=O)OC6=CC=C(C=C6)[N+](=O)[O-] [JZL-184] + CS(=O)(=O)CCNCc1ccc(-c2ccc3ncnc(Nc4ccc(OCc5cccc(F)c5)c(Cl)c4)c3c2)o1 [Lapatinib] (partner 2 µM)
Method in brief: as §1

[3] = compound: C1CN(CCC1C(C2=CC3=C(C=C2)OCO3)(C4=CC5=C(C=C4)OCO5)O)C(=O)OC6=CC=C(C=C6)[N+](=O)[O-] [JZL-184] + COc1cc2c(Oc3ccc(NC(=O)C4(C(=O)Nc5ccc(F)cc5)CC4)cc3F)ccnc2cc1OCCCN1CCOCC1 [Foretinib] (partner 0.25 µM)
Method in brief: as §1

[4] = compound: C1CN(CCC1C(C2=CC3=C(C=C2)OCO3)(C4=CC5=C(C=C4)OCO5)O)C(=O)OC6=CC=C(C=C6)[N+](=O)[O-] [JZL-184] + CC(C)C[C@H](NC(=O)[C@H](Cc1ccccc1)NC(=O)c1cnccn1)B(O)O [Bortezomib] (partner 0.002 µM)
Method in brief: as §1

[5] = compound: C1CN(CCC1C(C2=CC3=C(C=C2)OCO3)(C4=CC5=C(C=C4)OCO5)O)C(=O)OC6=CC=C(C=C6)[N+](=O)[O-] [JZL-184] + C[C@]1(O)C[C@@H](c2nc(-c3ccc4ccc(-c5ccccc5)nc4c3)c3c(N)nccn32)C1 [Linsitinib] (partner 1 µM)
Method in brief: as §1

[6] = compound: C1CN(CCC1C(C2=CC3=C(C=C2)OCO3)(C4=CC5=C(C=C4)OCO5)O)C(=O)OC6=CC=C(C=C6)[N+](=O)[O-] [JZL-184] + O=C(c1cc(Cc2n[nH]c(=O)c3ccccc23)ccc1F)N1CCN(C(=O)C2CC2)CC1 [Olaparib] (partner 8 µM)
Method in brief: as §1

[7] = compound: C1CN(CCC1C(C2=CC3=C(C=C2)OCO3)(C4=CC5=C(C=C4)OCO5)O)C(=O)OC6=CC=C(C=C6)[N+](=O)[O-] [JZL-184] + CC1(C)CCC(c2ccc(Cl)cc2)=C(CN2CCN(c3ccc(C(=O)NS(=O)(=O)c4ccc(N[C@H](CCN5CCOCC5)CSc5ccccc5)c(S(=O)(=O)C(F)(F)F)c4)cc3)CC2)C1 [Navitoclax] (partner 0.5 µM)
Method in brief: as §1

[8] = compound: C1CN(CCC1C(C2=CC3=C(C=C2)OCO3)(C4=CC5=C(C=C4)OCO5)O)C(=O)OC6=CC=C(C=C6)[N+](=O)[O-] [JZL-184] + Cc1nc(NC(=O)N2CCC[C@H]2C(N)=O)sc1-c1ccnc(C(C)(C)C(F)(F)F)c1 [Alpelisib] (partner 2 µM)
Method in brief: as §1

[9] = compound: C1CN(CCC1C(C2=CC3=C(C=C2)OCO3)(C4=CC5=C(C=C4)OCO5)O)C(=O)OC6=CC=C(C=C6)[N+](=O)[O-] [JZL-184] + C[C@@H](Oc1cc(-c2cnn(C3CCNCC3)c2)cnc1N)c1c(Cl)ccc(F)c1Cl [Crizotinib] (partner 1 µM)
Method in brief: as §1

[10] = compound: C1CN(CCC1C(C2=CC3=C(C=C2)OCO3)(C4=CC5=C(C=C4)OCO5)O)C(=O)OC6=CC=C(C=C6)[N+](=O)[O-] [JZL-184]
Method in brief: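 For viability, nuclei in each treated well were divided by nuclei in vehicle wells and the median across plates was taken. Lung cancer cell lines in 1536-well plates were pinned with five library-drug doses (not always all listed) spaced by √10, cultured 5 days without medium change, and imaged at 4× after Hoechst staining, with plates passing only at control CV below 25% and at least one doubling.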

[11] = compound: C1CN(CCC1C(C2=CC3=C(C=C2)OCO3)(C4=CC5=C(C=C4)OCO5)O)C(=O)OC6=CC=C(C=C6)[N+](=O)[O-] [JZL-184] + CCNC(=O)c1noc(-c2cc(C(C)C)c(O)cc2O)c1-c1ccc(CN2CCOCC2)cc1 [Luminespib] (partner 0.01 µM)
Method in brief: as §1

[12] = compound: C1CN(CCC1C(C2=CC3=C(C=C2)OCO3)(C4=CC5=C(C=C4)OCO5)O)C(=O)OC6=CC=C(C=C6)[N+](=O)[O-] [JZL-184] + COc1cccc2cc(-c3nc([C@H]4CC[C@H](C(=O)O)CC4)n4ncnc(N)c34)[nH]c12 [OSI-027] (partner 0.5 µM)
Method in brief: as §1

[13] = compound: C1CN(CCC1C(C2=CC3=C(C=C2)OCO3)(C4=CC5=C(C=C4)OCO5)O)C(=O)OC6=CC=C(C=C6)[N+](=O)[O-] [JZL-184] + Cc1nc(Nc2ncc(C(=O)Nc3c(C)cccc3Cl)s2)cc(N2CCN(CCO)CC2)n1 [Dasatinib] (partner 0.075 µM)
Method in brief: as §1

[14] = compound: C1CN(CCC1C(C2=CC3=C(C=C2)OCO3)(C4=CC5=C(C=C4)OCO5)O)C(=O)OC6=CC=C(C=C6)[N+](=O)[O-] [JZL-184] + N=C(N)NC(=N)NCCc1ccccc1 [Phenformin] (partner 250 µM)
Method in brief: as §1

[15] = compound: C1CN(CCC1C(C2=CC3=C(C=C2)OCO3)(C4=CC5=C(C=C4)OCO5)O)C(=O)OC6=CC=C(C=C6)[N+](=O)[O-] [JZL-184] + Cc1cc(Nc2cc(N3CCN(C)CC3)nc(Sc3ccc(NC(=O)C4CC4)cc3)n2)n[nH]1 [Tozasertib] (partner 0.1 µM)
Method in brief: as §1

Cell Line: Calu-6
- relative viability ([1]; first compound 0.04 µM): 0.993
- relative viability ([1]; first compound 0.4 µM): 0.865
- relative viability ([1]; first compound 1.265 µM): 1
- relative viability ([1]; first compound 4 µM): 0.91
- relative viability ([2]; first compound 0.04 µM): 1.14
- relative viability ([2]; first compound 0.4 µM): 1.04
- relative viability ([2]; first compound 1.265 µM): 1.02
- relative viability ([2]; first compound 4 µM): 1.1
- relative viability ([3]; first compound 0.04 µM): 0.946
- relative viability ([3]; first compound 0.4 µM): 0.83
- relative viability ([3]; first compound 1.265 µM): 0.887
- relative viability ([3]; first compound 4 µM): 0.855
- relative viability ([4]; first compound 0.04 µM): 1.11
- relative viability ([4]; first compound 0.4 µM): 0.925
- relative viability ([4]; first compound 1.265 µM): 1
- relative viability ([4]; first compound 4 µM): 1.06
- relative viability ([5]; first compound 0.04 µM): 0.984
- relative viability ([5]; first compound 0.4 µM): 0.95
- relative viability ([5]; first compound 1.265 µM): 0.985
- relative viability ([5]; first compound 4 µM): 0.906
- relative viability ([6]; first compound 0.04 µM): 0.565
- relative viability ([6]; first compound 0.4 µM): 0.495
- relative viability ([6]; first compound 1.265 µM): 0.534
- relative viability ([6]; first compound 4 µM): 0.623
- relative viability ([7]; first compound 0.04 µM): 0.845
- relative viability ([7]; first compound 0.4 µM): 0.807
- relative viability ([7]; first compound 1.265 µM): 0.852
- relative viability ([7]; first compound 4 µM): 0.798
- relative viability ([8]; first compound 0.04 µM): 1.17
- relative viability ([8]; first compound 0.4 µM): 0.984
- relative viability ([8]; first compound 1.265 µM): 0.98
- relative viability ([8]; first compound 4 µM): 0.886
- relative viability ([9]; first compound 0.04 µM): 1.08
- relative viability ([9]; first compound 0.4 µM): 0.709
- relative viability ([9]; first compound 1.265 µM): 0.776
- relative viability ([9]; first compound 4 µM): 0.784
- relative viability ([10]; 0.04 µM): 1.05
- relative viability ([10]; 0.4 µM): 0.981
- relative viability ([10]; 1.265 µM): 1.01
- relative viability ([10]; 4 µM): 0.971

Cell Line: NCI-H1623
- relative viability ([11]; first compound 0.04 µM): 0.389
- relative viability ([11]; first compound 0.4 µM): 0.411
- relative viability ([11]; first compound 1.265 µM): 0.626
- relative viability ([11]; first compound 4 µM): 0.585
- relative viability ([12]; first compound 0.04 µM): 0.463
- relative viability ([12]; first compound 0.4 µM): 0.438
- relative viability ([12]; first compound 1.265 µM): 0.464
- relative viability ([12]; first compound 4 µM): 0.446
- relative viability ([13]; first compound 0.04 µM): 0.512
- relative viability ([13]; first compound 0.4 µM): 0.561
- relative viability ([13]; first compound 1.265 µM): 0.573
- relative viability ([13]; first compound 4 µM): 0.47
- relative viability ([3]; first compound 0.04 µM): 0.904
- relative viability ([3]; first compound 0.4 µM): 0.818
- relative viability ([3]; first compound 1.265 µM): 0.944
- relative viability ([3]; first compound 4 µM): 0.807
- relative viability ([14]; first compound 0.04 µM): 0.566
- relative viability ([14]; first compound 0.4 µM): 0.551
- relative viability ([14]; first compound 1.265 µM): 0.595
- relative viability ([14]; first compound 4 µM): 0.565
- relative viability ([15]; first compound 0.04 µM): 0.453
- relative viability ([15]; first compound 0.4 µM): 0.442
- relative viability ([15]; first compound 1.265 µM): 0.442
- relative viability ([15]; first compound 4 µM): 0.482
- relative viability ([10]; 0.04 µM): 0.941
- relative viability ([10]; 0.4 µM): 0.988
- relative viability ([10]; 1.265 µM): 1
- relative viability ([10]; 4 µM): 0.937
